This assay has as its target T1, β-glucanase.
T1 construct: gene eglA; native secreted enzyme purified from culture supernatant (ammonium sulfate, DEAE-Cellulose, Sephadex G200); 56 kDa on SDS-PAGE; gene not identified; assayed as CMC hydrolysis
The assay is described as follows: residual CMC hydrolysis, DNS reducing sugar. The settings on record: free enzyme, standard assay 0.5% CMC stock, citrate pH 5.0, 40 °C. The format is biochemical, Aspergillus niger.

As usually defined, the IC50 is the concentration that gives 50% inhibition. Low values mean inhibition by little substance, high ones a need for much substance.

Compound `CC(O)C(C)O` (stereo not shown) [2.3-butanediol] returned an IC50 (arginyl reagent, printed as 2,3-butanediol, probably 2,3-butanedione meant) of 4.65 mM. `CC(=O)n1ccnc1` [N-Acetyl imidazole] registered an IC50 (covalent, tyrosyl reagent) of 8.87 mM. Where the note is “covalent, tryptophanyl reagent”, `O=C1CCC(=O)N1Br` [N-bromosuccinimide] had an IC50 of 6.44 mM. For `[Hg+][c]1ccccc1` [phenylmercuric acetate], the IC50 (covalent, sulfhydryl reagent) was found to be 5.47 mM.

(Values after publication PMC8545931, “Production and immobilization of β-glucanase from Aspergillus niger with its applications in bioethanol production and biocontrol of phytopathogenic fungi” (Scientific Reports, 2021).)
